Measurements: PubChem BioAssay AID1918945 (Molecular Pharmacology Branch, DTP, NCI, 2023)
Several values for one entry are separate records, joined by “and”; a condition that tells them apart may be missing. Equal entries are not always repeated.

Tested on: 883617-216-R-J1-PDC complex spheroid viability
Assay: Anticancer human tumor 883617-216-R-J1-PDC patient-derived bladder carcinoma cell line growth inhibition
Conditions: for viability, T/C: stronger effect = lower value; active means viability on the fitted dose curve at most 10% of control; inactive means the rest
Description: Multicellular complex tumor spheroid response to LSD1 Inhibitor Iadademstat in combination with a variety of drugs and investigational agents in selected tumor cell lines
The current study was undertaken to assess response to LSD1 inhibitors in combination with standard-of-care drugs and investigational agents in solid tumor complex spheroid models as well as in the K-562 leukemia. Complex spheroids include a stromal component modeled by human endothelial cells (HUVEC) and fibroblasts modeled by human mesenchymal stem cells (MSCs). The concentration ranges selected for each drug and investigational agent were based upon clinically achievable concentrations if the clinical Cmax of the agent was known.
Compounds. The drugs and investigational agents used in this study are listed on Table 1. All of the agents used, including staurosporine (NSC755774) and gemcitabine (NSC613327), were obtained from the Developmental Therapeutics Program, NCI. FDA-approved anticancer drugs are available from the NCI at http://dtp.nci.nih.gov/branches/dscb/oncology_drugset_explanation.html. Drugs and investigational agents were >95% pure by proton nuclear magnetic resonance (NMR) and liquid chromatography/mass spectrometry (LC/MS). Stock solutions were prepared at 400x in DMSO, stored at -70 degrees C, and diluted in fresh medium prior to their use. The final concentration of DMSO in cell culture wells never exceeded 0.25% (v/v). The FDA-approved anticancer drug set is available from the Developmental Therapeutics Program at https://dtp.cancer.gov/organization/dscb/obtaining/available_plates.htm. All drugs and investigational agents were tested over a range starting from a high concentration at or near the clinical Cmax and decreasing in half-log increments. If the clinical Cmax for an agent had not been determined, the highest concentration tested was 10 microM.
Cell Lines. The patient-derived cancer cell (PDC) lines: 292921-168-R-J2-PDC, K24384-001-R-PDC, and 521955-158-R2-J5-PDC pancreatic carcinomas, 556581-035-R-J1 ovarian carcinoma, 324938-238-R-J1-PDC, 855422-203-R-J1-PDC and 883617-216-R-J1-PDC urothelial bladder carcinomas, 743489-274-T-PDC renal cell carcinoma, 138582-R-J1 Merkel cell tumor, K60290-347-R-J1 and K57222-313-R-J1-PDC glioblastomas, 653999-131-R-J2-PDC, LG0703-F948-PDC, and 349418-098-R-PDC non-small cell lung carcinomas, 885512-296-R-J2-PDC, 171881-019-R-J1-PDC breast carcinomas and 186277-243-T-J2-PDC and 233499-124-R-J2-PDC colon carcinomas were obtained from the NCI Patient-Derived Models Repository (PDMR, https://pdmr.cancer.gov). The established cell lines NCI/ADR-RES (RRID:CVCL_14520 and OVCAR-5 (RRID:CVCL_1628) ovarian carcinomas, 786-O (RRID:CVCL_1051) and A498 (RRID:CVCL_A498) renal cell carcinoma, NCI-H211 (ATCC, cat. CRL-5824; RRID:CVCL_1529), NCI-H196 (ATCC, cat. CRL-5823, RRID:CVCL_1509), SW 1271 (ATCC, cat. CRL-2177, RRID:CVCL_1716) and NCI-H1876 (ATCC, cat. CRL-5902, RRID:CVCL_1503) small cell lung carcinomas, MDA-MB-231 (RRID:CVCL_0062) and MDA-MB-468 (RRID:CVCL_0419)breast carcinomas (10-12). Pooled donor human umbilical vein endothelial cells (HUVEC, Lonza, cat. CC-2519) and human mesenchymal stem cells (hMSC, Lonza, cat. PT-2501) were purchased from Lonza (Walkersville, MD).
Cell Culture. All cells were maintained in an incubator at 37 degrees C and 5% CO2 with 95% humidity. The PDC lines were cultured according to standard operating procedures established by the NCI PDMR (https://pdmr.cancer.gov). Briefly all PDCs were thawed and cultured in Matrigel-coated flasks prepared with a working solution of 1X Ham's F-12 nutrient mix, without supplementation (Invitrogen, Waltham, MA, cat. 11765054), 100 U/mL penicillin-streptomycin (Invitrogen, cat. 15140122), and 2.5% Matrigel (Corning Inc., Corning, NY, cat. 354248) for the first three passages. […]

[1] = curve of first compound, second compound 0.1 µM
[2] = curve of first compound, second compound 0.316 µM
[3] = curve of first compound, second compound 1 µM
[4] = curve of first compound, second compound 3.16 µM
[5] = curve of first compound, second compound 10 µM
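Further: exposure lasted seven days after three days of spheroid growth.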
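Wherever viability, T/C is given: 100% = DMSO vehicle control luminescence.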

NS(=O)(=O)OCC1CC(n2ccc3c(NC4CCc5ccccc54)ncnc32)CC1O (centres undefined) + NC1CCC(NC2CC2c2ccccc2)CC1
399 nM: IC50 [1]
inactive: viability, T/C (second compound 0.1 µM, first compound 0.00949 µM) 111% | viability, T/C (second compound 0.1 µM, first compound 0.03 µM) 121% | viability, T/C (second compound 0.1 µM, first compound 0.0949 µM) 106% | viability, T/C (second compound 0.1 µM, first compound 0.3 µM) 59.8% | viability, T/C (second compound 0.1 µM, first compound 0.949 µM) 20.7% | viability, T/C (second compound 0.1 µM, first compound 3 µM) 15.2% | viability, T/C (second compound 0.316 µM, first compound 0.00949 µM) 118% | viability, T/C (second compound 0.316 µM, first compound 0.03 µM) 113% | viability, T/C (second compound 0.316 µM, first compound 0.0949 µM) 113% | viability, T/C (second compound 0.316 µM, first compound 0.3 µM) 73.8% | viability, T/C (second compound 0.316 µM, first compound 0.949 µM) 19.4% | viability, T/C (second compound 0.316 µM, first compound 3 µM) 15.6% | viability, T/C (second compound 1 µM, first compound 0.00949 µM) 102% | viability, T/C (second compound 1 µM, first compound 0.03 µM) 116% | viability, T/C (second compound 1 µM, first compound 0.0949 µM) 105% | viability, T/C (second compound 1 µM, first compound 0.3 µM) 67% | viability, T/C (second compound 1 µM, first compound 0.949 µM) 19.5% | viability, T/C (second compound 1 µM, first compound 3 µM) 14% | viability, T/C (second compound 3.16 µM, first compound 0.00949 µM) 101% | viability, T/C (second compound 3.16 µM, first compound 0.03 µM) 106% | viability, T/C (second compound 3.16 µM, first compound 0.0949 µM) 99.5% | viability, T/C (second compound 3.16 µM, first compound 0.3 µM) 73.8% | viability, T/C (second compound 3.16 µM, first compound 0.949 µM) 20.2% | viability, T/C (second compound 3.16 µM, first compound 3 µM) 13.7% | viability, T/C (second compound 10 µM, first compound 0.00949 µM) 113% | viability, T/C (second compound 10 µM, first compound 0.03 µM) 117% | viability, T/C (second compound 10 µM, first compound 0.0949 µM) 107% | viability, T/C (second compound 10 µM, first compound 0.3 µM) 58.9% | viability, T/C (second compound 10 µM, first compound 0.949 µM) 20.8% | viability, T/C (second compound 10 µM, first compound 3 µM) 14.6%
392 nM: IC50 [5]
500 nM: IC50 [4]
453 nM: IC50 [3]
497 nM: IC50 [2]

CC(C)CC(NC(=O)C(Cc1ccccc1)NC(=O)c1cnccn1)B(O)O (centres undefined)
13.8% and 0.88%: viability, T/C (compound 0.00316 µM)
inactive: viability, T/C (compound 0.000316 µM) 103% and 98.5% | viability, T/C (compound 0.001 µM) 95.8% and 43.5%
1.9 nM and 0.872 nM: IC50 (curve of compound)
active: viability, T/C (compound 0.01 µM) 1.11% and 0.16% | viability, T/C (compound 0.0316 µM) 1.27% and 0.13% | viability, T/C (compound 0.1 µM) 0.62% and 0.21%

NC1CCC(NC2CC2c2ccccc2)CC1 (centres undefined)
> 10000 nM: IC50 (compound alone, run of 11/29/2021)
inactive: viability, T/C (compound 0.1 µM) 103% [middle of 25 runs] | viability, T/C (compound 0.316 µM) 107% and 112% | viability, T/C (compound 1 µM) 104% [middle of 25 runs] | viability, T/C (compound 3.16 µM) 105% [middle of 25 runs] | viability, T/C (compound 10 µM) 107% [middle of 23 runs]

COc1ccc([C@@H](O)c2cc(-c3ncnc4cc(N5CCOCC5)ccc34)c(F)cc2Cl)nn1 + NC1CC1c1ccc(-c2cccc(O)c2)cc1
902 nM: IC50 [3]
712 nM: IC50 [4]
304 nM: IC50 [5]
inactive: viability, T/C (second compound 0.1 µM, first compound 0.0316 µM) 111% | viability, T/C (second compound 0.1 µM, first compound 0.1 µM) 102% | viability, T/C (second compound 0.1 µM, first compound 0.316 µM) 71.5% | viability, T/C (second compound 0.1 µM, first compound 1 µM) 46.1% | viability, T/C (second compound 0.1 µM, first compound 3.16 µM) 30.6% | viability, T/C (second compound 0.1 µM, first compound 10 µM) 15.1% | viability, T/C (second compound 0.316 µM, first compound 0.0316 µM) 109% | viability, T/C (second compound 0.316 µM, first compound 0.1 µM) 93.3% | viability, T/C (second compound 0.316 µM, first compound 0.316 µM) 74.4% | viability, T/C (second compound 0.316 µM, first compound 1 µM) 48.8% | viability, T/C (second compound 0.316 µM, first compound 3.16 µM) 31.5% | viability, T/C (second compound 0.316 µM, first compound 10 µM) 15.3% | viability, T/C (second compound 1 µM, first compound 0.0316 µM) 113% | viability, T/C (second compound 1 µM, first compound 0.1 µM) 98.3% | viability, T/C (second compound 1 µM, first compound 0.316 µM) 75% | viability, T/C (second compound 1 µM, first compound 1 µM) 43.8% | viability, T/C (second compound 1 µM, first compound 3.16 µM) 32.7% | viability, T/C (second compound 1 µM, first compound 10 µM) 15.2% | viability, T/C (second compound 3.16 µM, first compound 0.0316 µM) 116% | viability, T/C (second compound 3.16 µM, first compound 0.1 µM) 93.8% | viability, T/C (second compound 3.16 µM, first compound 0.316 µM) 58.2% | viability, T/C (second compound 3.16 µM, first compound 1 µM) 47.2% | viability, T/C (second compound 3.16 µM, first compound 3.16 µM) 27% | viability, T/C (second compound 3.16 µM, first compound 10 µM) 14.3% | viability, T/C (second compound 10 µM, first compound 0.0316 µM) 88% | viability, T/C (second compound 10 µM, first compound 0.1 µM) 71.9% | viability, T/C (second compound 10 µM, first compound 0.316 µM) 42.1% | viability, T/C (second compound 10 µM, first compound 1 µM) 39% | viability, T/C (second compound 10 µM, first compound 3.16 µM) 21.8% | viability, T/C (second compound 10 µM, first compound 10 µM) 12.4%
1030 nM: IC50 [2]
877 nM: IC50 [1]

CC1COCCN1c1cc(C2(S(C)(=N)=O)CC2)nc(-c2ccnc3[nH]ccc23)n1 (centres undefined)
inactive: viability, T/C (compound 0.0316 µM) 103% and 94.9% | viability, T/C (compound 0.1 µM) 98.4% and 71.9% | viability, T/C (compound 0.316 µM) 65.3% and 47.5% | viability, T/C (compound 1 µM) 44.2% and 42.4% | viability, T/C (compound 3.16 µM) 39.6% and 31.8% | viability, T/C (compound 10 µM) 28.1% and 23.8%
721 nM and 377 nM: IC50 (curve of compound)

O=C(C=Cc1cccc(S(=O)(=O)Nc2ccccc2)c1)NO
active: viability, T/C (compound 3 µM) 3.45% and 0.83%
inactive: viability, T/C (compound 0.00949 µM) 97.1% and 80.1% | viability, T/C (compound 0.03 µM) 76.2% and 59% | viability, T/C (compound 0.0949 µM) 51.9% and 41.6% | viability, T/C (compound 0.3 µM) 38.6% and 33.9% | viability, T/C (compound 0.949 µM) 28.6% and 14.6%
158 nM and 66 nM: IC50 (curve of compound)

COc1ccc([C@@H](O)c2cc(-c3ncnc4cc(N5CCOCC5)ccc34)c(F)cc2Cl)nn1
1000 nM and 524 nM: IC50 (curve of compound)
inactive: viability, T/C (compound 0.0316 µM) 91.2% and 99.6% | viability, T/C (compound 0.1 µM) 89.8% and 86.9% | viability, T/C (compound 0.316 µM) 67.2% and 52.7% | viability, T/C (compound 1 µM) 48.6% and 41.2% | viability, T/C (compound 3.16 µM) 37.1% and 26.7% | viability, T/C (compound 10 µM) 22.2% and 14.9%
